{"source": "ChEMBL document CHEMBL3758155", "about": "“Development of certain new 2-substituted-quinazolin-4-yl-aminobenzenesulfonamide as potential antitumor agents” (Eur J Med Chem, 2016)", "key": {"HT-29 [1]": {"tested_on": "HT-29", "experiment": "Inhibition of carbonic anhydrase 1 expression in human HT-29 cells at 2.5 to 10 uM after 18 hrs by Western blot analysis", "format": "functional, cell-based"}, "HT-29 [2]": {"tested_on": "HT-29", "experiment": "Inhibition of carbonic anhydrase 2 expression in human HT-29 cells at 2.5 to 10 uM after 18 hrs by Western blot analysis", "format": "functional, cell-based"}, "HT-29 [3]": {"tested_on": "HT-29", "experiment": "Antiproliferative activity against human HT-29 cells assessed as inhibition of cell viability after 24 hrs by trypan blue assay", "format": "functional, cell-based"}, "SW-620": {"tested_on": "SW-620", "experiment": "Antiproliferative activity against human SW620 cells assessed as inhibition of cell viability at 5 to 10 uM after 24 hrs by trypan blue assay", "format": "functional, cell-based"}, "HT-29 [4]": {"tested_on": "HT-29", "experiment": "Inhibition of carbonic anhydrase 9 expression in human HT-29 cells after 18 hrs by Western blot analysis", "format": "functional, cell-based"}, "HT-29 [5]": {"tested_on": "HT-29", "experiment": "Antiproliferative activity against human HT-29 cells assessed as cell viability at 10 uM after 24 hrs by trypan blue assay", "format": "functional", "conditions": "HT-29, 24 h, read-out: Activity"}, "HT-29 [6]": {"tested_on": "HT-29", "experiment": "Inhibition of carbonic anhydrase 12 expression in human HT-29 cells after 18 hrs by Western blot analysis", "format": "functional, cell-based"}, "HT-29 [7]": {"tested_on": "HT-29", "experiment": "Antiproliferative activity against human HT-29 cells assessed as inhibition of cell viability at 10 uM by trypan blue assay", "format": "functional, cell-based", "conditions": "TDE = time-dependent effect"}}, "note": "Active and inactive are the calls of the source. The rule behind the calls is not given here.", "data": [{"smiles": "NS(=O)(=O)c1ccc(Nc2nc(-c3ccc(Cl)cc3)nc3ccccc23)cc1", "values": [{"measurement": "inhibition", "setting": "HT-29 [1]", "result": "inactive"}, {"measurement": "inhibition", "setting": "HT-29 [2]", "result": "inactive"}, {"measurement": "inhibition", "setting": "HT-29 [3]", "result": "Dose-dependent effect"}, {"measurement": "IC50", "setting": "HT-29 [3]; HT-29, 24 h", "result": 5.45, "unit": "µM"}, {"measurement": "inhibition", "setting": "SW-620", "result": "Active"}, {"measurement": "inhibition", "setting": "HT-29 [4]", "result": "Dose-dependent effect"}, {"measurement": "viability at 10 µM", "setting": "HT-29 [5]", "result": 12, "unit": "%"}, {"measurement": "inhibition", "setting": "HT-29 [6]", "result": "Dose-dependent effect"}, {"measurement": "inhibition", "setting": "HT-29 [7]", "result": "tde"}]}]}
